Test results from ChEMBL document CHEMBL1201862, “PubChem BioAssay data set” (2004).
Activity calls are given as the source filed them.

Experiments:
[1] = target: Envelope glycoprotein gp160 (Human immunodeficiency virus 1, UniProt Q6QLK5); experiment: inhibitors of HIV fusion peptide binding, primary screen, biochemical, uHTS, fluorescence dequenching (AID 1986)
ELAV-like protein 1 = ELAV-like protein 1 (Homo sapiens, UniProt Q15717); experiment: Identify HuR specific inhibitors.; assay type: functional
[2] = target: T1, Probable nicotinate-nucleotide adenylyltransferase (Staphylococcus aureus (strain N315), UniProt P65502); assay type: functional, Staphylococcus aureus subsp. aureus N315;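 as to IC50 Mean: confirmatory dose-response retesting of NadD inhibitor hits first found in an ultra-high-throughput screen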
[3] = target: T1, Probable nicotinate-nucleotide adenylyltransferase; assay type: functional, Staphylococcus aureus subsp. aureus N315; details: read-out: IC50_Mean
[4] = HIV-1 Env-mediated cell fusion inhibitors, dose response, CCR5-tropic Env (AID 2279); assay type: functional
Streptococcus = experiment: Group A Streptococcus viability loss, dose response, counter-screen for streptokinase expression inhibitor project, luminescence, BacTiterGlo (AID 1915); assay type: functional, organism-based;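 also: potency for reduction of bacterial viability or growth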
[5] = target: G-protein coupled receptor 55 (Homo sapiens, UniProt Q9Y2T6); experiment: GPR55 agonists via beta-arrestin recruitment, primary screen, imaging, U2OS cells, beta-arrestin-GFP redistribution (AID 1961); assay type: functional
[6] = system: Streptococcus sp. 'group A'; experiment: growth inhibition of control SK(-) GAS strain, dose response, counter-screen for streptokinase expression inhibitor project, luminescence, kanamycin, BacTiterGlo, confirmation (AID 1900); assay type: functional, organism-based
[7] = target: Luciferin 4-monooxygenase (Photinus pyralis, UniProt P08659); experiment: Counter Screen for Luciferase-based Assay Positives. [Related pubchem assays: 620, 618, 411 ]
INS1 = experiment: beta cell apoptosis inhibitors, cytokine rescue, dose response, luminescence, retest (AID 449756); assay type: functional, cell-based; details: Rattus norvegicus;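 also: cell death triggered by IL-1 beta plus TNF-alpha plus IFN-gamma mixture; protective hits raise ATP signal compared with cytokine alone wells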
HT-1080 = experiment: cytotoxicity in HT1080 fibrosarcoma cells, cell-based, fluorescence readout (AID 620); assay type: functional; details: Homo sapiens
Streptokinase A = target: T2, Streptokinase A (Streptococcus pyogenes serotype M1, UniProt P10520); experiment: S. pyogenes streptokinase expression inhibitors, potency, dose response, plasminogen activation absorbance, OD405 (AID 1914); assay type: functional, Streptococcus pyogenes M1 GAS;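 also: secreted streptokinase activity via plasminogen activation per viability signal from cell pellet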
T2 sequence (P10520 whole entry): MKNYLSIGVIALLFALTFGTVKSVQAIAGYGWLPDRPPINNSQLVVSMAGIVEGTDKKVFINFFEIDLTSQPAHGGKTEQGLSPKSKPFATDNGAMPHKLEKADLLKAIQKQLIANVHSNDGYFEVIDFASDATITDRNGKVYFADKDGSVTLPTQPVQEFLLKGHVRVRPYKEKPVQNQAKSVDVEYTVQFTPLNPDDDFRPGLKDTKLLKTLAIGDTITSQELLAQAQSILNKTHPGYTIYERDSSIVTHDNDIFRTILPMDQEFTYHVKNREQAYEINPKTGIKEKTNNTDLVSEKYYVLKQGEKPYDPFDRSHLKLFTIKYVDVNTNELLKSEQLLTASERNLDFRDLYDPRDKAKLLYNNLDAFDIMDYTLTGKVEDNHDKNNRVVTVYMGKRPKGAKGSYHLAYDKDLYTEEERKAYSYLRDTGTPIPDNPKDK

[8] = target: Glyceraldehyde-3-phosphate dehydrogenase (Homo sapiens, UniProt P04406)
[9] = Artemis endonuclease inhibitor potency, dose response, biochemical, fluorescence intensity (AID 720701); assay type: functional;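 also: Artemis endonuclease enzyme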
[10] = microbe, parasite or virus in culture; assay type: functional; details: Mycobacterium tuberculosis
[11] = target: T3, Runt-related transcription factor 1/Core-binding factor subunit beta (Homo sapiens, UniProt Q01196+Q13951); experiment: inhibitors of RUNX1 Runt–CBFb-SMMHC binding, primary screen, biochemical, FRET, Cerulean-Runt, Venus-CBFb-SMMHC, uHTS (AID 1434); assay type: protein assay;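 also: partner is the CBFb-SMMHC leukemia fusion protein rather than wild-type CBFb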
[12] = target: T3, Runt-related transcription factor 1/Core-binding factor subunit beta; experiment: inhibitors of RUNX1 Runt–CBFb-SMMHC binding, biochemical, TR-FRET (AID 1438); assay type: protein assay
[13] = HeLa cell cytotoxicity, dose response, cytotoxicity control for MgcRacGAP inhibitor project (AID 624300); assay type: functional
CAAX prenyl protease 2 [14] = target: CAAX prenyl protease 2 (Saccharomyces cerevisiae S288c, UniProt Q03530); assay type: biochemical
[15] = target: T4, Rac GTPase-activating protein 1 (Homo sapiens, UniProt Q9H0H5); experiment: MgcRacGAP GTPase-activating activity inhibitors, confirmation, biochemical, ADP Hunter fluorescence, primary and confirmatory (AID 624330); assay type: functional
T4 sequence (Q9H0H5 whole entry): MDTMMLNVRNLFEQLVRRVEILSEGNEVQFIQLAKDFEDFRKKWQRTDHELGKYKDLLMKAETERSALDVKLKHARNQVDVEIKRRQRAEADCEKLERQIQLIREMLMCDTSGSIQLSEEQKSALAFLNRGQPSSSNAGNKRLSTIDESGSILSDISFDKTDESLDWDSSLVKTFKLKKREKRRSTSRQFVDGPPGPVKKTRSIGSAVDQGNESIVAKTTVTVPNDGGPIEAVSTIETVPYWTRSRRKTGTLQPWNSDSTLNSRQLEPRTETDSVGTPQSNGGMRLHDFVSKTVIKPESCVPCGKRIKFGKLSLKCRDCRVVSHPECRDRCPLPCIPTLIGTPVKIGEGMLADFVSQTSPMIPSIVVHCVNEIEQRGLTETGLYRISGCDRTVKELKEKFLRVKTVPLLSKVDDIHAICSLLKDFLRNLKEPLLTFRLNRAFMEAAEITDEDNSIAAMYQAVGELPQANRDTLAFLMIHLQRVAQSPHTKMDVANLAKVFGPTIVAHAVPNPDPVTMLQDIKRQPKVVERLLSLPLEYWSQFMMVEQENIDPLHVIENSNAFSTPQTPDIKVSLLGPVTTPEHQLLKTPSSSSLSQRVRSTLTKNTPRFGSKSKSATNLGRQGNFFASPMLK

CAAX prenyl protease 2 [16] = target: T5, CAAX prenyl protease 2 (Homo sapiens, UniProt Q9Y256); experiment: human Rce1 protease inhibitors, dose response, biochemical, yeast membranes, quenched-peptide fluorescence, cherry-pick (AID 588849)
T5 sequence (Q9Y256 whole entry): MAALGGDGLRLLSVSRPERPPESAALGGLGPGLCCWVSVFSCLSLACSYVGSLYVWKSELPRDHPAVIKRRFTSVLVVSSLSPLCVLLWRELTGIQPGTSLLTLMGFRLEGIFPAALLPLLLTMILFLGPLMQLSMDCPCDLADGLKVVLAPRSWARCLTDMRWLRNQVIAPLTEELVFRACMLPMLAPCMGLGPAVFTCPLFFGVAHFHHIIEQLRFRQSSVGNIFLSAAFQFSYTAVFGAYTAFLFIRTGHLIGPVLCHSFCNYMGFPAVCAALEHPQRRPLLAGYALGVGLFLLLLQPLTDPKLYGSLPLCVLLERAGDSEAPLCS

Trypsin = Trypsin (Sus scrofa, UniProt P00761); experiment: porcine trypsin inhibitors, dose response, selectivity assay for Rce1 protease inhibitor project, biochemical, quenched peptide fluorescence, cherry-pick (AID 488789)
[17] = target: E3 ubiquitin-protein ligase Mdm2/Protein Mdm4 (Homo sapiens, UniProt O15151+Q00987); experiment: Mdm2-MdmX interaction inhibitors, dose response, luminescence detection (AID 504593); assay type: functional
E3 ubiquitin-protein ligase Mdm2/Protein Mdm4, sequence (Q00987 whole entry): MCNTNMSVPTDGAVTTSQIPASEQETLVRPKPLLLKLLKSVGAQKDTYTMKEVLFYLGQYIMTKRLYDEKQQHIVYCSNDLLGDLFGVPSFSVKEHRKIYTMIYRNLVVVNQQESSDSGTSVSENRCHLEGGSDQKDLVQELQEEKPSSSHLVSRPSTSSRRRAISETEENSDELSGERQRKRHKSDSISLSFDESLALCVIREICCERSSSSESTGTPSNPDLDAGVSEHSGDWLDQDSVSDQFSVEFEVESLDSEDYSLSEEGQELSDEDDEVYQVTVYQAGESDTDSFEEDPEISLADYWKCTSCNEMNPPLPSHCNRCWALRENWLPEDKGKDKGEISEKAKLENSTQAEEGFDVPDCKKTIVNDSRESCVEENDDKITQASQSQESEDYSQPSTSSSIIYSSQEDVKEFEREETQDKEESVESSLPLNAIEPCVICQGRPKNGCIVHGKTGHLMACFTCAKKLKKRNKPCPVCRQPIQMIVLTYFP
E3 ubiquitin-protein ligase Mdm2/Protein Mdm4, sequence (O15151 whole entry): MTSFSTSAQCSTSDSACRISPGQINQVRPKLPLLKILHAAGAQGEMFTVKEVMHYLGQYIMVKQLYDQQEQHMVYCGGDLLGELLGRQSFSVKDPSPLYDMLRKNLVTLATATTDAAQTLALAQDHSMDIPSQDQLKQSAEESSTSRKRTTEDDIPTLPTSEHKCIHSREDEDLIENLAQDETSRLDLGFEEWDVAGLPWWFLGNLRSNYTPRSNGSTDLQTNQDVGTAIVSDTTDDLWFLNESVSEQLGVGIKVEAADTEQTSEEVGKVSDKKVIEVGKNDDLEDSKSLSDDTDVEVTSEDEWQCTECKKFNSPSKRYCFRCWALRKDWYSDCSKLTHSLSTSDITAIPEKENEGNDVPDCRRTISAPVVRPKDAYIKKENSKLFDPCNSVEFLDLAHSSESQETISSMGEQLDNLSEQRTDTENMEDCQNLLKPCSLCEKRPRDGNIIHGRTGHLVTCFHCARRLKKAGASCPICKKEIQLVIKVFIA

T1 sequence (P65502 whole entry): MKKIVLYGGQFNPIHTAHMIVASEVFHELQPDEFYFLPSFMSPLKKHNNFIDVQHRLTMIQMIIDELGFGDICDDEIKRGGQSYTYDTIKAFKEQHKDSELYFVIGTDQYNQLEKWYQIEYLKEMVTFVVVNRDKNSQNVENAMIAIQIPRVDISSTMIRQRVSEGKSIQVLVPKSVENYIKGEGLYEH
T3 sequence (Q01196 whole entry, the tested form may be a part): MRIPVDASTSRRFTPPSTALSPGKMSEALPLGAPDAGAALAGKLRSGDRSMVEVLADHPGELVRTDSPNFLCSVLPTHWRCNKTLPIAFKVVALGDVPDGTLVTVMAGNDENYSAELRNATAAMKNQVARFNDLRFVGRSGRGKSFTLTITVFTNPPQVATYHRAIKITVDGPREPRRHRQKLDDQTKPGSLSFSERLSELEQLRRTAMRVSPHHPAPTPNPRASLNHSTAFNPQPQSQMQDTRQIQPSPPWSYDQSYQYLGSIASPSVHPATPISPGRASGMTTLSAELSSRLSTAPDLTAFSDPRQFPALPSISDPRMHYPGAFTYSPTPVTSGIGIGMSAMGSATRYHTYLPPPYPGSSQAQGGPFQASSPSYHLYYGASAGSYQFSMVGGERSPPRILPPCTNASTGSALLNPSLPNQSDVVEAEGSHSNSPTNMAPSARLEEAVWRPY
T3 sequence (Q13951 whole entry, the tested form may be a part): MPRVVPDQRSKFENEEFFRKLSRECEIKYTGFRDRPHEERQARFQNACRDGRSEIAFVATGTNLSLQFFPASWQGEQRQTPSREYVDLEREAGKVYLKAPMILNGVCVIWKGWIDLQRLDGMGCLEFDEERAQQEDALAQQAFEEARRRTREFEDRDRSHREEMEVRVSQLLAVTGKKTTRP
Envelope glycoprotein gp160, sequence (Q6QLK5 whole entry, the tested form may be a part): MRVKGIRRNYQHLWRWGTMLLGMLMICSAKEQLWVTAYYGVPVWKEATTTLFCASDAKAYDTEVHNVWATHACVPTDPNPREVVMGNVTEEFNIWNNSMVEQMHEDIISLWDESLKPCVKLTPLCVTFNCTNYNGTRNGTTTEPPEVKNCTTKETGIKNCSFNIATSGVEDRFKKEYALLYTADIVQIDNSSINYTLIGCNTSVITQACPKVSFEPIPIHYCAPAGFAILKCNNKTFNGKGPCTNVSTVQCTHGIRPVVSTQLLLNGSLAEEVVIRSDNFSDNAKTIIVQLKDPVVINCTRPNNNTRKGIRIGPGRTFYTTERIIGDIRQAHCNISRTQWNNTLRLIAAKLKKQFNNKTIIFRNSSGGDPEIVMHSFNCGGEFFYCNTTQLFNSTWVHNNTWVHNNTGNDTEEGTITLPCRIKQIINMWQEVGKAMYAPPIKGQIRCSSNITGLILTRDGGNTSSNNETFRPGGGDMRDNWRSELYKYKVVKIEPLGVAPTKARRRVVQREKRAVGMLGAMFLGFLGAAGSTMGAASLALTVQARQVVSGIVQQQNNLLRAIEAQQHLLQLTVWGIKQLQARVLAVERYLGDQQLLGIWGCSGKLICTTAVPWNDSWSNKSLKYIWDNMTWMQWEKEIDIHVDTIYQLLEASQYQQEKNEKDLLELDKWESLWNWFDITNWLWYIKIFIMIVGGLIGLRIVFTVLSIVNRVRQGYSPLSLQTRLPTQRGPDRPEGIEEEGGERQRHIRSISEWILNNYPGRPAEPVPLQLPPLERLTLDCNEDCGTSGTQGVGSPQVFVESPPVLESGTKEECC
Luciferin 4-monooxygenase, sequence (P08659 whole entry): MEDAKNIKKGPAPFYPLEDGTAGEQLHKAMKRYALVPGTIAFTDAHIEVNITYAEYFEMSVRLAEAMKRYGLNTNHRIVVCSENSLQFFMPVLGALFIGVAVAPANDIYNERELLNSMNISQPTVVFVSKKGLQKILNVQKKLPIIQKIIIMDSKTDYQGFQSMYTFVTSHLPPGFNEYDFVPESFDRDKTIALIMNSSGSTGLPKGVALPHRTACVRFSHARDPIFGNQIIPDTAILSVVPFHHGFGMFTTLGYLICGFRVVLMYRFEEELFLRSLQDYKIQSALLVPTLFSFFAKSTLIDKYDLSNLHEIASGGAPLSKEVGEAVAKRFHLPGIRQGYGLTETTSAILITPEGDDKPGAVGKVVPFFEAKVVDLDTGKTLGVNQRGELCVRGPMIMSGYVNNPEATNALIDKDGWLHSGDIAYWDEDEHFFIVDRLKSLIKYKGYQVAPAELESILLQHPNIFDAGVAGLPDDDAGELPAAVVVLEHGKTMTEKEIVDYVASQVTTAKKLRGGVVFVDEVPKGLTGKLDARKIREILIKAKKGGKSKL
ELAV-like protein 1, sequence (Q15717 whole entry): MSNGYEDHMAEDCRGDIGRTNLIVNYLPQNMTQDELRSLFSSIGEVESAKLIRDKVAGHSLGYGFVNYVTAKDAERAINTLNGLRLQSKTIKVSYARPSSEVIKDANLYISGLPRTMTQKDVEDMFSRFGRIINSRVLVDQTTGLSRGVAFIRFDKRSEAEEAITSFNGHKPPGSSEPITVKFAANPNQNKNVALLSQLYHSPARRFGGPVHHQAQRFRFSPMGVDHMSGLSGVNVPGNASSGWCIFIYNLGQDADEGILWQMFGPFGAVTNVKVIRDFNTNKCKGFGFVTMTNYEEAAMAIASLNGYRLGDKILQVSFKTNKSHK
G-protein coupled receptor 55, sequence (Q9Y2T6 whole entry): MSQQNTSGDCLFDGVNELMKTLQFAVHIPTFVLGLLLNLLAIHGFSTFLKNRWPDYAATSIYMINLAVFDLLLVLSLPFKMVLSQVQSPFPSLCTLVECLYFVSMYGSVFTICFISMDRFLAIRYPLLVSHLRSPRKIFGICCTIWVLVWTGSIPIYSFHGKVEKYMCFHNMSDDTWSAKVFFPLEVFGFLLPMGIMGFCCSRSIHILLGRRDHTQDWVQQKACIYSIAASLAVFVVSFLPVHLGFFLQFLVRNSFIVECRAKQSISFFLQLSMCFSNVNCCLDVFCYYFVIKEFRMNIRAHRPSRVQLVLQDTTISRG
Glyceraldehyde-3-phosphate dehydrogenase, sequence (P04406 whole entry): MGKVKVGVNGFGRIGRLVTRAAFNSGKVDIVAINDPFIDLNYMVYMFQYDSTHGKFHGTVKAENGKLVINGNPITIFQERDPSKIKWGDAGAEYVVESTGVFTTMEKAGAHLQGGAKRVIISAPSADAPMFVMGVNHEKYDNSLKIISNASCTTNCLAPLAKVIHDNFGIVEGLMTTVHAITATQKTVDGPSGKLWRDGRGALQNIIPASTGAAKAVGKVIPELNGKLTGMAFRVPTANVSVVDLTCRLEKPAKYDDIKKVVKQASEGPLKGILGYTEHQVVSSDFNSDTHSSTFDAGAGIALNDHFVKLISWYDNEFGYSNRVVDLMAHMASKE
Trypsin, sequence (P00761 whole entry): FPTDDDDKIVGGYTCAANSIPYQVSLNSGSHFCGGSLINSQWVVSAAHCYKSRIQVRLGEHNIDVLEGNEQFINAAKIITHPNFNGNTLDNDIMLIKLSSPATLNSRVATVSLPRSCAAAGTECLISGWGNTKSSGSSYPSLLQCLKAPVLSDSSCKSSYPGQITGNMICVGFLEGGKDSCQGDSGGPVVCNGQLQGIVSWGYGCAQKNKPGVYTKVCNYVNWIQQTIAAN
CAAX prenyl protease 2 (Saccharomyces cerevisiae S288c, UniProt Q03530), sequence (Q03530 whole entry): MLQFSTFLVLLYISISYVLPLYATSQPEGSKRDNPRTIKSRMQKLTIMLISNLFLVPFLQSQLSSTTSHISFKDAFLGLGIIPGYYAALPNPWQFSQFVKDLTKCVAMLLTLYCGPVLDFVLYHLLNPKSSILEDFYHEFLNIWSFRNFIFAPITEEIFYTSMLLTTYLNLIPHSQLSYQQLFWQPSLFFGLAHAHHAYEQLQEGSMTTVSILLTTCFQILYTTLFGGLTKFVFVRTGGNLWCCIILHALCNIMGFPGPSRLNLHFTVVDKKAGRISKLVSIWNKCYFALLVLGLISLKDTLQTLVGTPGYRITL

Q: What does the source list for `COC1C(OC(=O)c2ccc(C)[nH]2)C(O)C(Oc2ccc3c(O)c(NC(=O)c4ccc(O)c(CC=C(C)C)c4)c(=O)oc3c2Cl)OC1(C)C` (stereo not drawn)?
A: IC50 [1]: 13 µM (active); IC50 (ELAV-like protein 1): 41.9 µM (active); IC50 [2]: 2.1 µM (active); IC50 [3]: 7.01 µM (active); IC50 [4]: 38.4 µM (active)

Q: With `Cc1cc(/C=N/n2cnnc2)c(C)n1-c1ccc(OCc2ccc(Cl)cc2Cl)cc1` as the compound, how does the EC50 (Streptococcus) read?
A: Its EC50 is 4.73 µM (active).

Q: And the EC50 [5]?
A: The EC50 was 1.35 µM (active).

Q: And the EC50 [6]?
A: The EC50 was 2.46 µM (active).

Q: What about the EC50 [7] of the same compound?
A: Its EC50 is 0.28 µM (active).

Q: And the AC50 (INS1)?
A: The AC50 was 1.6 µM (active).

Q: What about the EC50 (HT-1080) of the same compound?
A: Its EC50 is > 50 µM (not active).

Q: What about the EC50 (Streptokinase A) of the same compound?
A: The EC50 was > 150 µM (not active).

Q: What about the IC50 [8] of the same compound?
A: The IC50 was > 100 µM (not active).

Q: And the IC50 [9]?
A: Its IC50 is 5.84 µM (active).

Q: What about the CC50 [10] of the same compound?
A: Its CC50 is 14.1 µM (active).

Q: For `Cc1cc(C)n2nc3nc4c(cc3c2n1)CCCC4`, which IC50 [11] is on record?
A: Its IC50 is 36.8 µM (active).

Q: And the IC50 [12]?
A: Its IC50 is > 100 µM (inactive).

Q: Which results are given for `COc1cc(-c2nc3ccccn3c2NCC2CCCO2)ccc1O` (stereo not drawn)?
A: CC50 [13]: 100 µM (active); AC50 (CAAX prenyl protease 2 [14]): 23.4 µM (active); IC50 [15]: 49.9 µM (active); AC50 (CAAX prenyl protease 2 [16]): 6.82 µM (active); AC50 (Trypsin): 12.8 µM (active)

Q: With `COc1cc(-c2nc(-c3ccc(NC(=O)c4ccc5c(c4)OCO5)cc3)no2)cc(OC)c1OC` as the compound, how does the IC50 [17] read?
A: The IC50 was 3.91 µM (active).
